# Measurements published in patent publication US10793568B2, “Hormone receptor modulators for treating metabolic conditions and disorders” (ARDELYX, INC., priority 2016, dated 2020).
# Like-named read-outs stand apart in the source and are kept apart here.
# Columns and labels:
# [1] = target: ligand binding domain of human FXR (Homo sapiens (Human), UniProt Q96RI1); test: FXR ligand binding assay (LanthaScreen TR-FRET, SRC2-2 peptide recruitment); details: for pEC50: -log EC50, concentration required to produce 50% activation; for Emax: read-out: % Efficacy
# Sequence of ligand binding domain of human FXR (Q96RI1 262-486): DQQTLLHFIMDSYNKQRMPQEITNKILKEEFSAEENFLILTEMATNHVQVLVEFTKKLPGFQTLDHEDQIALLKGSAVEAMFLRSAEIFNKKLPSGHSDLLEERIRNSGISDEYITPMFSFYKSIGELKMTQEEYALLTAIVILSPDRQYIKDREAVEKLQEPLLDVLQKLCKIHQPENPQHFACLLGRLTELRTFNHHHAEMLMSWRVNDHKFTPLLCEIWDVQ
# [2] = target: human Farnesoid X receptor ligand-binding domain/Gal4 DNA binding domain chimera (Homo sapiens (Human), UniProt Q96RI1); test: Cell-based assay of FXR activation (FXR-UAS-bla HEK 293T beta-lactamase reporter); details: cellular FXR beta-lactamase reporter assay; for Emax: HEK-293T, extent of activation relative to GW4064, read-out: % Efficacy; for EC50: FXR-UAS-bla HEK 293T cells, 16 h, pEC50 = -log EC50
# Sequence of human Farnesoid X receptor ligand-binding domain/Gal4 DNA binding domain chimera (Q96RI1 262-486, change not shown): as the sequence (Q96RI1 262-486) above
# Sequence of human Farnesoid X receptor ligand-binding domain/Gal4 DNA binding domain chimera (P04386 1-147 partner): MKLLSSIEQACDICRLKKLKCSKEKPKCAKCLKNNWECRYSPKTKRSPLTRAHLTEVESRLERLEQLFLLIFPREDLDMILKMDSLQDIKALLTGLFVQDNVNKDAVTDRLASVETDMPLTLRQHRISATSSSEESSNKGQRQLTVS
# Summary of the method: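 HEK 293T cells stably expressing a Gal4-fused human FXR LBD and a UAS-driven beta-lactamase reporter were incubated with serially diluted compounds for 16 h at 37 °C in phenol red-free DMEM with 2% charcoal-stripped FBS. CCF4 FRET read-out: excitation 409 nm, emission 447 nm. pEC50 comes from a 3-parameter logistic fit, and efficacy is given as % of GW4064.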
# [3] = extent of activation relative to GW4064
Structure (SMILES),pEC50 [1],"Emax [1, 3] [%]",Emax [2] [%],EC50 [2] [nM],Emax [1] [%]
"Cc1cccc(Cl)c1-c1noc(C2CC2)c1CO[C@@H]1C[C@@H]2C[C@H]1CN2c1ccc(C(=O)O)cc1F [Compound I-113, 4-[(1S,4S,5R)-5-[[3-(2-chloro-6-methylphenyl)-5-cyclopropyl-1,2-oxazol-4-yl]methoxy]-2-azabicyclo[2.2.1]heptan-2-yl]-3-fluorobenzoic acid]",8.8,126,101,0.794,–
"O=C(NS(=O)(=O)C1CCOCC1)c1ccc(N2C[C@@H]3C[C@H]2C[C@H]3OCc2c(C3CCC4(CC3)CC4)noc2C2CC2)c(F)c1 [Compound I-230, 4-((1S,4S,5R)-5-((5-cyclopropyl-3-(spiro[2.5]octan-6-yl)isoxazol-4-yl)methoxy)-2-azabicyclo[2.2.1]heptan-2-yl)-3-fluoro-N-((tetrahydro-2H-pyran-4-yl)sulfonyl)benzamide]",8,150,104,6.31,–
"Cc1cccc(Cl)c1-c1noc(C2CC2)c1CO[C@@H]1C[C@@H]2C[C@H]1CN2c1nc2c([C@@H]3CCOC3)cc(C(=O)O)cc2s1 [Compound I-273, 2-((1S,4S,5R)-5-((3-(2-chloro-6-methylphenyl)-5-cyclopropylisoxazol-4-yl)methoxy)-2-azabicyclo[2.2.1]heptan-2-yl)-4-((S)-tetrahydrofuran-3-yl)benzo[d]thiazole-6-carboxylic Acid]",8.4,132,106,0.398,–
"O=C(CCc1ccc(N2C[C@@H]3C[C@H]2C[C@H]3OCc2c(-c3c(F)cccc3Cl)noc2C2CC2)c(F)c1)NS(=O)(=O)C1CC1 [Compound I-240, 3-(4-((1S,4S,5R)-5-((3-(2-chloro-6-fluorophenyl)-5-cyclopropylisoxazol-4-yl)methoxy)-2-azabicyclo[2.2.1]heptan-2-yl)-3-fluorophenyl)-N-(cyclopropylsulfonyl)propanamide]",8.1,162,92,6.31,–
"O=C(O)c1cnc(N2C[C@@H]3C[C@H]2C[C@H]3OCc2c(-c3c(Cl)cccc3Cl)noc2C2CC2)nc1 [Compound I-145, 2-[(1S,4S,5R)-5-{[5-cyclopropyl-3-(2,6-dichlorophenyl)-1,2-oxazol-4-yl]methoxy}-2-azabicyclo[2.2.1]heptan-2-yl]pyrimidine-5-carboxylic Acid]",8,118,108,63.1,–
"O=c1[nH]c2cc(N3C[C@@H]4C[C@H]3C[C@H]4OCc3c(-c4c(Cl)cccc4Cl)noc3C3CC3)ccc2o1 [Compound I-140, 5-[(1S,4S,5R)-5-{[5-cyclopropyl-3-(2,6-dichlorophenyl)-1,2-oxazol-4-yl]methoxy}-2-azabicyclo[2.2.1]heptan-2-yl]-2,3-dihydro-1,3-benzoxazol-2-one]",9.1,142,121,20,–
"O=C(O)CNC(=O)c1ccc(N2C[C@@H]3C[C@H]2C[C@H]3OCc2c(-c3c(Cl)cccc3Cl)noc2C2CC2)cc1 [Compound I-165, 2-({4-[(1S,4S,5R)-5-{[5-cyclopropyl-3-(2,6-dichlorophenyl)-1,2-oxazol-4-yl]methoxy}-2-azabicyclo[2.2.1]heptan-2-yl]phenyl}formamido)acetic Acid]",8.4,140,107,20,–
"O=C(O)c1ccc2nc(N3C[C@@H]4C[C@H]3C[C@H]4OC(=O)c3c(-c4c(Cl)cccc4Cl)noc3C3CC3)sc2c1 [Compound I-2, 2-[(1S,4S,5R)-5-[5-cyclopropyl-3-(2,6-dichlorophenyl)-1,2-oxazole-4-carbonyloxy]-2-azabicyclo[2.2.1]heptan-2-yl]-1,3-benzothiazole-6-carboxylic acid]",7.3,138,120,10,–
"Cn1nc(C(=O)NS(=O)(=O)C2CC2)cc1N1C[C@@H]2C[C@H]1C[C@H]2OCc1c(-c2c(Cl)cccc2Cl)noc1C1CC1 [Compound I-233, N-(cyclopropanesulfonyl)-5-[(1S,4S,5R)-5-{[5-cyclopropyl-3-(2,6-dichlorophenyl)-1,2-oxazol-4-yl]methoxy}-2-azabicyclo[2.2.1]heptan-2-yl]-1-methyl-1H-pyrazole-3-carboxamide]",7.8,77,–,< 31.6,–
"Cc1cccc(Cl)c1-c1noc(C2CC2)c1CO[C@@H]1C[C@@H]2C[C@H]1CN2c1ccc(CCC(=O)NS(=O)(=O)C2CCOCC2)cc1F [Compound I-243, 3-(4-((1S,4S,5R)-5-((3-(2-chloro-6-methylphenyl)-5-cyclopropylisoxazol-4-1)methoxy)-2-azabicyclo[2.2.1]heptan-2-yl)-3-fluorophenyl)-N-((tetrahydro-2H-pyran-4-yl)sulfonyl)propanamide]",8.4,182,98,6.31,–
"CCOc1cc(C(=O)O)cc2sc(N3C[C@@H]4C[C@H]3C[C@H]4OC(=O)c3c(-c4c(Cl)cccc4Cl)noc3C3CC3)nc12 [Compound I-8, 2-[(1S,4S,5R)-5-[5-cyclopropyl-3-(2,6-dichlorophenyl)-1,2-oxazole-4-carbonyloxy]-2-azabicyclo[2.2.1]heptan-2-yl]-4-ethoxy-1,3-benzothiazole-6-carboxylic acid]",7.6,137,106,2.51,–
"O=C(NS(=O)(=O)C1CC1)c1ccc(N2C[C@@H]3C[C@H]2C[C@H]3OCc2c(C3CCC4(CC3)CC4)noc2C2CC2)cc1 [Compound I-228, 4-((1S,4S,5R)-5-((5-cyclopropyl-3-(spiro[2.5]octan-6-yl)isoxazol-4-yl)methoxy)-2-azabicyclo[2.2.1]heptan-2-yl)-N-(cyclopropylsulfonyl)benzamide]",7,134,105,20,–
"O=P(O)(O)Cc1ccc(N2C[C@@H]3C[C@H]2C[C@H]3OCc2c(-c3c(Cl)cccc3Cl)noc2C2CC2)cc1 [Compound I-176, ({4-[(1S,4S,5R)-5-{[5-cyclopropyl-3-(2,6-dichlorophenyl)-1,2-oxazol-4-yl]methoxy}-2-azabicyclo[2.2.1]heptan-2-yl]phenyl}methyl)phosphonic Acid]",7.5,–,92,631,120
"O=C(NS(=O)(=O)C1COC1)c1ccc(N2C[C@@H]3C[C@H]2C[C@H]3OCc2c(-c3c(Cl)cccc3Cl)noc2C2CC2)cc1 [Compound I-184, 4-((1S,4S,5R)-5-((5-cyclopropyl-3-(2,6-dichlorophenyl)isoxazol-4-yl)methoxy)-2-azabicyclo[2.2.1]heptan-2-yl)-N-(oxetan-3-ylsulfonyl)benzamide]",7.7,161,108,3.16,–
"CCCS(=O)(=O)NC(=O)c1ccc(N2C[C@@H]3C[C@H]2C[C@H]3OCc2c(-c3c(Cl)cccc3Cl)noc2C2CC2)cc1 [Compound I-59, 4-[(1S,4S,5R)-5-{[5-cyclopropyl-3-(2,6-dichlorophenyl)-1,2-oxazol-4-yl]methoxy}-2-azabicyclo[2.2.1]heptan-2-yl]-N-(propane-1-sulfonyl)benzamide]",8.2,176,103,0.1,–
"NS(=O)(=O)[C@@H]1CCC[C@H]1OC(=O)c1ccc(N2C(=O)[C@@H]3C[C@H]2C[C@H]3OCc2c(-c3c(Cl)cccc3Cl)noc2C2CC2)cc1 [Compound I-345, (1R,2R)-2-sulfamoylcyclopentyl 4-[(1S,4R,5R)-5-{[5-cyclopropyl-3-(2,6-dichlorophenyl)-1,2-oxazol-4-yl]methoxy}-3-oxo-2-azabicyclo[2.2.1]heptan-2-yl]benzoate]",8.6,203,121,3.98,–
"O=C(NCCS(=O)(=O)O)c1ccc(N2C[C@@H]3C[C@H]2C[C@H]3OCc2c(-c3c(Cl)cccc3Cl)noc2C2CC2)cc1F [Compound I-168, 2-({4-[(1S,4S,5R)-5-{[5-cyclopropyl-3-(2,6-dichlorophenyl)-1,2-oxazol-4-yl]methoxy}-2-azabicyclo[2.2.1]heptan-2-yl]-2-fluorophenyl}formamido)ethane-1-sulfonic Acid]",8.6,164,107,100,–
"O=C(O)c1ccc(N2C[C@@H]3C[C@H]2C[C@H]3OCc2c(C3CCC4(CC3)CC4)noc2C2CC2)cc1 [Compound I-125, 4-[(1S,4S,5R)-5-[(5-cyclopropyl-3-{spiro[2.5]octan-6-yl}-1,2-oxazol-4-yl)methoxy]-2-azabicyclo[2.2.1]heptan-2-yl]benzoic Acid]",–,–,106,251,92
"O=C(O)c1ccc(N2C[C@@H]3C[C@H]2C[C@H]3OCc2c(-c3ccccc3C(F)(F)F)noc2C2CC2)c(F)c1 [Compound I-121, 4-[(1S,4S,5R)-5-({5-cyclopropyl-3-[2-(trifluoromethyl)phenyl]-1,2-oxazol-4-yl}methoxy)-2-azabicyclo[2.2.1]heptan-2-yl]-3-fluorobenzoic Acid]",–,174,107,1.26,–
"O=C(O)c1cc(C2CC2)c2nc(N3C[C@@H]4C[C@H]3C[C@H]4OCc3c(-c4c(Cl)cccc4Cl)noc3C3CC3)sc2c1 [Compound I-14, 4-cyclopropyl-2-[(1S,4S,5R)-5-{[5-cyclopropyl-3-(2,6-dichlorophenyl)-1,2-oxazol-4-yl]methoxy}-2-azabicyclo[2.2.1]heptan-2-yl]-1,3-benzothiazole-6-carboxylic acid]",8.6,146,111,0.1,–
